≈ marks a conversion by molar mass, not a printed value.
What was measured:
Type in all cases: cell-based
[1] = tested on: Enterococcus faecium VRQR (vancomycin resistant, quinolone resistant); experiment: MIC, agar dilution method, Mueller-Hinton agar with 5% defibrinated horse blood; details: 35° C., 5 % CO2, 24 hours
Description: (§1) The following in vitro results were obtained based on an agar dilution method except for C. pneumoniae. The activity is presented as the minimum inhibitory concentration (MIC).
(§2) Streptococci and enterococci were tested on Mueller-Hinton agar supplemented with 5% defibrinated horse blood, using an approximate inoculum of 1×10^4 cfu/spot an incubation temperature of 35° C. in an atmosphere of 5 % CO2 for 24 hours. The MIC was defined as the lowest concentration at which no visible bacterial growth was observed.

[2] = tested on: Streptococcus pneumoniae PRQR (penicillin resistant, quinolone resistant); experiment: as above; details: 35° C., 5 % CO2, 24 hours
Description: as §1, §2

[3] = tested on: Streptococcus pyogenes IID692; experiment: as above; details: 35° C., 5 % CO2, 24 hours
Description: as §1, §2

[4] = tested on: Streptococcus pneumoniae IID553; experiment: as above; details: 35° C., 5 % CO2, 24 hours
Description: as §1, §2

[5] = tested on: Staphylococcus aureus Smith; experiment: MIC, agar dilution method, Mueller-Hinton agar; details: 35° C., 24 hours
Description: as §1
(§3) S. aureus and M. catarrhalis were tested on Mueller-Hinton agar, using an approximate inoculum of 1×10^4 cfu/spot an incubation temperature of 35° C. for 24 hours. The MIC was defined as the lowest concentration at which no visible bacterial growth was observed.

[6] = tested on: Staphylococcus aureus CR (chloramphenicol resistant); experiment: MIC, agar dilution method, Mueller-Hinton agar; details: 35° C., 24 hours
Description: as §1, §3

[7] = tested on: Staphylococcus aureus MR (methicillin resistant); experiment: MIC, agar dilution method, Mueller-Hinton agar; details: 35° C., 24 hours
Description: as §1, §3

[8] = tested on: Morcaxella catarrhalis ATCC25238; experiment: MIC, agar dilution method, Mueller-Hinton agar; details: 35° C., 24 hours
Description: as §1, §3

SMILES | MIC [1] [µg/mL] | MIC [2] [µg/mL] | MIC [3] [µg/mL] | MIC [4] [µg/mL] | MIC [5] [µg/mL] | MIC [6] [µg/mL] | MIC [7] [µg/mL] | MIC [8] [µg/mL]
CC(=O)NC[C@H]1CN(c2ccc(-c3ccc([C@@]4(C#N)[C@@H]5CNC[C@@H]54)nc3)cc2)C(=O)O1.Cl [Example 13, N-[5(S)-3-[4-[2-[(1α,5α,6β)-6-Cyano-3-azabicyclo[3.1.0]hexan-6-yl]pyridin-5-yl]phenyl]-2-oxooxazolidin-5-ylmethyl]acetamide Hydrochloride] | 0.125 | 0.06 | 0.06 | 0.125 | 0.125 | 0.5 | 0.125 | 1
CC(=O)NC[C@H]1CN(c2ccc(-c3ccc([C@@]4(C#N)[C@@H]5CNC[C@@H]54)c(F)c3)c(F)c2)C(=O)O1.Cl [Example 15, N-[5(S)-3-[4-[4-[(1α,5α,6β)-6-Cyano-3-azabicyclo[3.1.0]hexan-6-yl]-3-fluorophenyl]-3-fluorophenyl]-2-oxooxazolidin-5-ylmethyl]acetamide Hydrochloride] | 0.5 | 0.25 | 0.25 | 0.25 | 0.25 | 1 | 0.25 | 4
N#C[C@]1(c2ccc(-c3ccc(N4C[C@H](Cn5ccnn5)OC4=O)cc3F)cn2)[C@@H]2COC[C@@H]21 [Example 23, 1-[5(R)-3-[4-[2-[(1α,5α,6β)-6-Cyano-3-oxabicyclo[3.1.0]hexan-6-yl]pyridin-5-yl]-3-fluorophenyl]-2-oxooxazolidin-5-ylmethyl]-1,2,3-triazole] | 0.06 (≈ 0.134 µM) | 0.06 (≈ 0.134 µM) | 0.06 (≈ 0.134 µM) | 0.06 (≈ 0.134 µM) | 0.06 (≈ 0.134 µM) | 0.5 (≈ 1.12 µM) | 0.06 (≈ 0.134 µM) | 0.5 (≈ 1.12 µM)
CC(=O)NC[C@H]1CN(c2ccc(N3CCOCC3)c(F)c2)C(=O)O1 [Linezolid, reference compound] | – | – | – | – | – | – | – | 4 (≈ 11.9 µM)

— US7582659B2, “Cyclopropyl group substituted oxazolidinone antibiotics and derivatives thereof” (Merck & Co., Inc., priority 2003, dated 2009)
